Assays:
SMYD2 [1] = biological target: T1, SMYD2 (Homo sapiens, UniProt Q9NRG4); experiment: In Cell Western (ICW) cell-based assay for detection of SMYD2 methylation activity; set-up: expressed in transfected cells; host or cells: KYSE-150 (human esophageal carcinoma, DSMZ ACC 375); settings: SMYD2 overexpressing KYSE-150 cells, 72 h treatment, p53K370me1 signal normalized to DRAQ5; read-out: IC50 [mol/l] (ICW assay)
From the text: 1.2 Cell-Based Assay for Detection of SMYD2 methylation Activity
For the detection of SMYD2 cellular methylation activity an In Cell Western (ICW) assay was established. This assay allows rapid processing of multiple samples for SMYD2 methylation derived immunofluorescence signals, with normalization to cell number via the use of the nucleic acid dye DRAQS. KYSE-150 cells (human esophageal carcinoma cell line; DSMZ-German Collection of Microorganisms and Cell Cultures; No: ACC 375) have been stably transfected with a construct expressing wild-type SMYD2 (NCBI Reference Sequence: NP_064582.2). To detect SMYD2-mediated methylation signals in cells, a customized antibody directed against mono-methylated lysine 370 on protein p53 (p53K370me1) was used. The polyclonal antibody was generated (Eurogentec) against a p53 peptide containing the mono-methylated K370 epitope as described elsewhere (Huang et al., Nature, 2006, 444(7119):629-32).
For conducting the ICW assay 5000 SMYD2 overexpressing KYSE-150 cells/well were seeded in 96-well plates (SIGMA) and cultivated for 24 h. As a control for maximal inhibition of ectopic methylation activity, non-transfected KYSE-150 cells were used. Cells were grown in 49% RPMI 1640 with 49% Ham's F12 media supplemented with 2% heat inactivated fetal calf serum (FCS). For determination of SMYD2 inhibitory activity, cells were treated for 72 h in the presence of compounds or with DMSO. Cells were treated with compounds to be tested at a final concentration range varying from 3.9×10^−8 to 5×10^−6 M. Media was removed and 3.7% (w/v) formaldehyde in PBS was added for 20 min. After two washes with phosphate buffered saline (PBS), 0.25% (v/v) Triton X100 in PBS was added for 15 minutes of permeabilization. After one washing step with PBS, cells were blocked for 1 h with 5% (w/v) non-fat dry milk in PBS. Fixed cells were exposed to primary […] antibody in 5% non-fat dry milk in PBS for 24 h. One row of cells on each plate was not exposed to p53K370me1 antibody and was reserved for background control measurements. The wells were washed three times with PBS, then secondary IR800 conjugated antibody (LI-COR) and DNA-intercalating dye, 5 μM DRAQ5 (LI-COR) were added for 3 h. After 5 washes with PBS, the fluorescence in each well was measured on an Odyssey (LI-COR) scanner at 800 nm (p53K370me1 signal; 764 nm excitation) and 700 nm (DRAQS signal; 683 nm excitation). Fluorescence intensity was quantified and normalized to background and DRAQ5 signals. IC50 values were calculated by fitting the normalized inhibition data to a 4-parameter logistic equation (Minimum, Maximum, IC50, Hill; Y=Max+(Min−Max)/(1+(X/IC50)Hill)) for each tested compound. For IC50 determination C0 (=no inhibition) was defined as the signal measured for DMSO treated controls. Ci (maximal inhibition) was defined as the signal measured for non SMYD2 overexpressing KYSE150 cells.

SMYD2 [2] = biological target: T1, SMYD2; experiment: Scintillation Proximity Assay (SPA) for detection of SMYD2 enzymatic inhibition; format: biochemical; set-up: The SMYD2 full length enzyme was produced in-house by expression (with an N-terminal 6× His tag) in E. coli; 6xHis (N); made in house; host or cells: E. coli; settings: SMYD2 full length enzyme, p53 Peptide substrate 1.0 μM, 3H-SAM 60 nM; read-out: IC50 [mol/l] (SPA Assay)
In short: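 Full-length N-His SMYD2 from E. coli (typically 3 nM) was preincubated with compounds (0.1 nM–20 μM) for 15 min, then reacted 30 min at 22° C with 60 nM 3H-SAM and 1.0 μM biotinylated p53 peptide in Tris pH 9.0. Streptavidin SPA beads read methylation, and IC50 came from a 4-parameter fit.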

T1 sequence (Q9NRG4 whole entry): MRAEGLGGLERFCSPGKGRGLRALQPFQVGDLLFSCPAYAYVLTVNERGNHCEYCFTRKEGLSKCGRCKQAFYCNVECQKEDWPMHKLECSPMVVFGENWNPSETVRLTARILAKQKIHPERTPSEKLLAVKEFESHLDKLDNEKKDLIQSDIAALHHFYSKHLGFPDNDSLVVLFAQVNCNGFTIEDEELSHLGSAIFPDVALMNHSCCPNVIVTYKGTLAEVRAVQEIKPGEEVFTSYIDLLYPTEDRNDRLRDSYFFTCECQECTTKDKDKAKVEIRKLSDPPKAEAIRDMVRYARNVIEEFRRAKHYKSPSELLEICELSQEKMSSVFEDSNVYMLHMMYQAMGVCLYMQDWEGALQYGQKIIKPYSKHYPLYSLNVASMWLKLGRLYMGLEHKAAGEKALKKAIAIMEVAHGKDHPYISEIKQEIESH

Row | Compound | IC50 (SMYD2 [1]) [nM] | IC50 (SMYD2 [2]) [nM]
1 | CCN(C(=O)[C@H]1CCCN1)C1CN(/C(=N\C#N)Nc2cccc(OC(F)F)c2)N=C1c1ccc(Cl)c(Cl)c1 (mixture of isomers) [Example 1, N-[1-{N′-Cyano-N-[3-(difluoromethoxy)phenyl]carbamimidoyl}-3-(3,4-dichlorophenyl)-4,5-dihydro-1H-pyrazol-4-yl]-N-ethyl-D-prolinamide] | 161 | 24.7
2 | CCN(C(=O)[C@H]1CCN1)C1CN(/C(=N\C#N)Nc2cccc(OC(F)F)c2)N=C1c1ccc(Cl)c(Cl)c1 (mixture of isomers) [Example 2, (2R)-N-[1-{N′-cyano-N-[3-(difluoromethoxy)phenyl]carbamimidoyl}-3-(3,4-dichlorophenyl)-4,5-dihydro-1H-pyrazol-4-yl]-N-ethylazetidine-2-carboxamide] | 44.5 | 14.5
3 | C[C@]1(C(=O)NC2CN(/C(=N\C#N)Nc3cccc(OC(F)F)c3)N=C2c2ccc(Cl)c(Cl)c2)CCCN1 (mixture of isomers) [Example 6, N-[1-{N′-Cyano-N-[3-(difluoromethoxy)phenyl]carbamimidoyl}-3-(3,4-dichlorophenyl)-4,5-dihydro-1H-pyrazol-1-yl]-2-methyl-D-prolinamide] | 104 | 11.3
4 | CN(C(=O)[C@H]1C[C@@H](O)CN1)C1CN(/C(=N\C#N)Nc2cccc(OC(F)F)c2)N=C1c1ccc(Cl)c(Cl)c1 (mixture of isomers) [Example 12, (4R)-N-[1-{N′-Cyano-N-[3-(difluoromethoxy)phenyl]carbamimidayl}-3-(3,4-dichlorophenyl)-4,5-dihydro-1H-pyrazol-1-yl]-4-hydroxy-N-methyl-D-prolinamide] | 313 | 16.8
5 | CCN(C(=O)[C@H]1CCCN1)C1CN(/C(=N\C#N)Nc2cc(OC)cc(C(F)(F)F)c2)N=C1c1ccc(Cl)c(Cl)c1 (mixture of isomers) [Example 28, N-[1-{N′-Cyano-N-[3-methoxy-5-(trifluoromethyl)phenyl]carbamimidoyl}-3-(3,4-dichlorophenyl)-4,5-dihydro-1H-pyrazol-4-yl]-N-ethyl-D-prolinamide] | 77 | 39.5
6 | CCN(C(=O)[C@H]1CCCN1)C1CN(/C(=N\C#N)Nc2cc(OC)ccc2Cl)N=C1c1ccc(Cl)c(Cl)c1 (mixture of isomers) [Example 32, N-{1-[N-(2-Chloro-5-methoxyphenyl)-N′-cyanocarbamimidoyl]-3-(3,4-dichlorophenyl)-4,5-dihydro-1H-pyrazol-4-yl}-N-ethyl-D-prolinamide] | 268 | 38.4
7 | CCN(C(=O)[C@H]1CCN1)C1CN(/C(=N\C#N)Nc2cccc(OC(F)F)c2)N=C1c1ccc(Cl)c(C)c1 (mixture of isomers) [Example 36, (2R)-N-[3-(4-Chloro-3-methylphenyl)-1-{N′-cyano-N-[3-(difluoromethoxy)phenyl]-carbamimidoyl}-4,5-dihydro-1H-pyrazol-4-yl]-N-ethylazetidine-2-carboxamide] | 3.87 | 8.03
8 | CCN(C(=O)[C@H]1C[C@@H](F)CN1)C1CN(/C(=N\C#N)Nc2cccc(OC(F)F)c2)N=C1c1ccc(Cl)c(C)c1 (mixture of isomers) [Example 38, (4R)-N-[3-(4-Chloro-3-methylphenyl)-1-{N′-cyano-N-[3-(difluoromethoxy)phenyl]carbamimidoyl}-4,5-dihydro-1H-pyrazol-4-yl]-N-ethyl-4-fluoro-D-prolinamide] | 18.8 | 387
9 | CCCN(C(=O)[C@H]1CCCN1)C1CN(/C(=N\C#N)Nc2cccc(OC(F)F)c2)N=C1c1ccc(Cl)c(C)c1 (mixture of isomers) [Example 40, N-[3-(4-Chloro-3-methylphenyl)-1-{N′-cyano-N-[3-(difluoromethoxy)phenyl]carbamimidoyl}-4,5-dihydro-1H-pyrazol-4-yl]-N-propyl-D-prolinamide] | 206 | 44.3
10 | CCN(C(=O)c1cccc(=O)[nH]1)C1CN(/C(=N\C#N)Nc2cccc(OC(F)F)c2)N=C1c1ccc(Cl)c(Cl)c1 (racemic) [Example 5, rac-N-[1-{N′-Cyano-N-[3-(difluoromethoxy)phenyl]carbamimidoyl}-3-(3,4-dichlorophenyl)-4,5-dihydro-1-pyrazol-4-yl]-N-ethyl-6-oxo-1,6-dihydropyridine-2-carboxamide] | 720 | 793
11 | CCN(C(=O)c1cccc(=O)[nH]1)C1CN(/C(=N\C#N)Nc2cccc(OC(F)(F)F)c2)N=C1c1ccc(Cl)c(Cl)c1 (racemic) [Example 18, rac-N-[1-{N′-Cyano-N-[3-(trifluoromethoxy)phenyl]carbamimidoyl}-3-(3,4-dichlorophenyl)-4,5-dihydro-1H-pyrazol-4-yl]-N-ethyl-6-oxo-1,6-dihydropyridine-2-carboxamide] | 764 | 1520
12 | N#C/N=C(/Nc1cccc(OC(F)F)c1)N1CC(NC(=O)[C@@H]2CCC[C@@H]2N)C(c2ccc(Cl)c(Cl)c2)=N1 (relative stereo) [Example 41, Rel-(1R,2S)-2-amino-N-[1-{N′-cyano-N-[3-(difluoromethoxy)phenyl]carbamimidoyl}-3-(3,4-dichlorophenyl)-4,5-dihydro-1H-pyrazol-4-yl]cyclopentanecarboxamide] | 571 | 121

Now from value to compound:

Row | IC50 (SMYD2 [1]) [nM] | IC50 (SMYD2 [2]) [nM] | Compound
13 | 2.6 | 4.45 | CCN(C(=O)[C@H]1CCCN1)C1CN(/C(=N\C#N)Nc2cccc(OC(F)F)c2)N=C1c1ccc(Cl)c(Cl)c1 (single isomer, unassigned) [Example 1.1, N-[1-{N′-Cyano-N-[3-(difluoromethoxy)phenyl]carbamimidoyl}-3-(3,4-dichlorphenyl)-4,5-dihydro-1H-pyrazol-4-yl]-N-ethyl-D-prolinamide]
14 | 63.4 | 19.8 | CCN(C(=O)[C@H]1C[C@@H](O)CN1)C1CN(/C(=N\C#N)Nc2cccc(OC(F)F)c2)N=C1c1ccc(Cl)c(Cl)c1 (single isomer, unassigned) [Example 3.1]
15 | 20.3 | 15.6 | CCN(C(=O)[C@H]1CCCN1)C1CN(/C(=N\C#N)Nc2cccc(OC(F)F)c2F)N=C1c1ccc(Cl)c(Cl)c1 (single isomer, unassigned) [Example 13.1, N-[1-{N′-Cyano-N-[3-(difluoromethoxy)-2-fluorophenyl]carbamimidoyl}-3-(3,4-dichlorophenyl)-4,5-dihydro-1H-pyrazol-4-yl]-N-ethyl-D-prolinamide]
16 | 16.8 | 28 | CCN(C(=O)[C@H]1CCCN1)C1CN(/C(=N\C#N)Nc2cccc(OC(F)(F)F)c2F)N=C1c1ccc(Cl)c(Cl)c1 (single isomer, unassigned) [Example 21.1, N-[1-{N′-Cyano-N-[2-fluoro-3-(trifluoromethoxy)phenyl]carbamimidoyl}-3-(3,4-dichlorophenyl)-4,5-dihydro-1H-pyrazol-4-yl]-N-ethyl-D-prolinamide]
17 | 228 | 878 | CCN(C(=O)[C@H]1CCCN1)C1CN(/C(=N\C#N)Nc2cccc(OC(F)(F)F)c2F)N=C1c1ccc(Cl)c(Cl)c1 (single isomer, unassigned) [Example 21.2, N-[1-{N′-Cyano-N-[2-fluoro-3-(trifluoromethoxy)phenyl]carbamimidoyl}-3-(3,4-dichlorophenyl)-4,5-dihydro-1H-pyrazol-4-yl]-N-ethyl-D-prolinamide]
